Experiments:
Thermolysin [1] = target: T1, Thermolysin (Bacillus thermoproteolyticus, UniProt P00800); experiment: Inhibition of Bacillus thermoproteolyticus thermolysin using […] as substrate at pH 7.5 after 15 mins by Henderson plot analysis
T1 sequence (P00800 whole entry): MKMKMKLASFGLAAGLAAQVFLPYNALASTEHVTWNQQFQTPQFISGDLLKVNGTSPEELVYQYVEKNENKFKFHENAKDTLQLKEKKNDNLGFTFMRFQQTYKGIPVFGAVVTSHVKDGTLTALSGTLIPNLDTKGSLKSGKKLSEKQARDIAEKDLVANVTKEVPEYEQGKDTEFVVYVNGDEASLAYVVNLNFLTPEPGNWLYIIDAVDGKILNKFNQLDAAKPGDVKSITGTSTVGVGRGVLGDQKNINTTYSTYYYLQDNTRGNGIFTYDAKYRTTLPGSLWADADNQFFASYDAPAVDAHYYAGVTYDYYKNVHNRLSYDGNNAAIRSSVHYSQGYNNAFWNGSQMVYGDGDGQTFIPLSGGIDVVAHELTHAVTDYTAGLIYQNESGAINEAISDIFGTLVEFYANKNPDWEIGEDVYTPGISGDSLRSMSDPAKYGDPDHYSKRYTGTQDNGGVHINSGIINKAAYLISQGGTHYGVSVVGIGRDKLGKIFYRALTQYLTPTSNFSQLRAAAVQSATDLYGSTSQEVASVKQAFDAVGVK

Thermolysin [2] = target: T1, Thermolysin; experiment: Inhibition of Bacillus thermoproteolyticus thermolysin
[3] = Inhibition of endothelin-converting enzyme (unknown origin); design: species or system Homo sapiens
Thermolysin [4] = target: T1, Thermolysin; experiment: Binding affinity to Bacillus thermoproteolyticus thermolysin at pH 7.5 after 15 mins by fluorescence spectrophotometry

Structure (SMILES) | Ki (Thermolysin [1]) | Ki (Thermolysin [2]) | IC50 [3] | Kd (Thermolysin [4])
CC(C)C[C@H](NP(=O)(O)O[C@@H]1O[C@@H](C)[C@H](O)[C@@H](O)[C@H]1O)C(=O)N[C@@H](Cc1c[nH]c2ccccc12)C(=O)O | 30 nM | 32 nM | 690 nM | 
CC(C)C[C@H](NP(=O)(O)O[C@H]1O[C@@H](C)[C@H](O)[C@@H](O)[C@H]1O)C(=O)N[C@@H](Cc1c[nH]c2ccccc12)C(=O)O | 280 nM |  |  | 210 nM

Source: ChEMBL document CHEMBL2440108, “Synthesis and enzymatic evaluation of phosphoramidon and its β anomer: Anomerization of α-l-rhamnose triacetate upon phosphitylation” (Bioorg Med Chem, 2013)
